Assay results taken from patent publication US8552058B2, “Application of L-n-butylphthalide in preventing and treating dementia” (CSPC Zhongqi Pharmaceutical Technology (Shijazhuang) Co., …, priority 2004, dated 2013).
Entries after “also recorded” stand apart in the source; their conditions may differ.

Columns and labels:
Assay type in all cases: in vivo, Wistar rats
[1] = tested on: rats with permanent ligation of bilateral common carotid arteries (2-VO model); assay: Morris' water maze (training latency, platform exploration) in 2-VO hypoperfusion model; conditions: for amelioration of impaired short-term memory and spatial orientation (overall conclusion): 2-VO rats with poor blood supply to brain, L-NBP at 10 mg/kg, 10 mg/kg
[2] = tested on: Superoxide dismutase (SOD); assay: SOD activity in cortex and hippocampus of hypoperfused (2-VO) rats; conditions: 10 mg/kg
[3] = tested on: malondialdehyde (MDA); assay: MDA content in cortex and hippocampus of hypoperfused (2-VO) rats; conditions: 10 mg/kg
[4] = tested on: choline acetyltransferase (ChAT); assay: ChAT activity in cortex and hippocampus of hypoperfused (2-VO) rats; conditions: 10 mg/kg
[5] = tested on: neurons, substantia alba of optic tracts and GFAP-positive astrocytes in brain; assay: Pathological and immunohistochemical detection (H-E, K-B, GFAP staining) in 2-VO rats
Protocol: Male Wistar rats, which were 10-weeks old and weighed approximately 280 grams, were used. 5 animals were placed in each cage, while the room temperature was kept at 23° C., with food and water freely accessible. Rats were anaesthetized with sodium pentobarbital (40 mg/kg), then bilateral common carotid arteries were exposed and the envelope of common carotid arteries and vagus nerve was carefully separated. For the hypoperfusion model group, bilateral common carotid arteries were ligated with 5-0 silk thread. For the sham surgery group, the same operation was conducted but with no ligation of bilateral common carotid arteries. A little of sterile crystalline sulfanilamide powder was applied on the wound after the surgery, then the skin was sutured. One month after the surgery, water maze and step-through test were performed. Rats were randomly assigned into 8 groups, with 10 animals per group. 1) sham surgery group: the same operation as that in hypoperfusion group was conducted but without ligation of bilateral common carotid arteries; 2) solvent control group: only vegetable oil was orally administered; 3) DL-NBP 10 mg/kg group; 4) DL-NBP 30 mg/kg group; 5) L-NBP 10 mg/kg group; 6) L-NBP 30 mg/kg group; 7) D-NBP 30 mg/kg group; Respective medicines or solvent were drenched since the 10th day after the surgery. Water maze experiments were performed on the 29-33rd days since the surgery, while step-through tests were performed on the 34-35th days since the surgery. Animals were killed for biochemical assay or pathological examination on the 36th day. In all the ethological tests, medicines were administered 40 minutes prior to respective test. 4-6 animals were chosen from each group randomly. After the ethological experiments, rats were anaesthetized with pentobarbital (100 mg/kg ip). Animal's skin and thorax was sequentially cut open and the heart was sufficiently exposed. Left tip of the heart was cut open, a perfusion needle was inserted along the aorta. After clamping with hemostat, physiological saline was infused. […]

[6] = tested on: rats with continuous perfusion of Aβ (1-40) into lateral ventricle; assay: Morris' water maze and working memory test after continuous i.c.v. perfusion of Aβ (1-40); conditions: for search strategy after 5 days of training / latency after 5 days of training: Aβ (1-40) i.c.v. rats; for latency after 5 days of training: mean±standard error, model 30.18±4.81, sham 13.02±2.77, p<0.05 vs model
Protocol: For Morris' Water Maze Automatic Monitor and experimental protocols, reference may be made to the experiments of learning and memory damage of rats induced by brain hypoperfusion.
Male Wistar rats, which were 10-weeks old and weighed approximately 280 grams, were used. One animal was placed in one cage, while the room temperature was kept at 23° C., with food and water freely accessible. Rats were anaesthetized with sodium pentobarbital (40 mg/kg), and were fixed to stereotaxic apparatus with the position of ventral decubitus. Head skin was cut open, a cannula for Aβ (1-40) perfusion was implanted into right ventricle. According to the stereotaxic profile of rat brain by Paxions and Watson, the implantation site was located 0.3 mm behind and 1.1 mm in the right side of anterior fontanelle, with the depth of 4.0 mm. The cannula was connected to a micro-osmotic pump. The pump was placed on the back of the rat. Aβ (1-40) was dissolved in 35% acetonitrile/0.1% trifluroacetic acid, and was continuously perfused intracerebroventricularly (i.c.v.) at 300 pmol/day, while only the solvent (35% acetonitrile/0.1% trifluroacetic acid) was perfused in the control group.
Rats were randomly classified into […] groups, with 10 animals per group. 1) the sham surgery group: only 35% acetonitrile/0.1% trifluroacetic acid+solvent was perfused into the ventricles of the rats; 2) the model group: Aβ (1-40)+solvent; 3) Aβ (1-40)+L-NBP 10 mg/kg group; 4) Aβ (1-40)+L-NBP 30 mg/kg group. Respective drug or solvent was drenched since the 2nd day after the surgery. The water maze experiment was performed on the 9-13 day after the surgery, while the platform exploration experiment was performed on the 13th day, and the working memory test was performed on the 14-16th days. Animals were decapitated to remove brains for biochemical assay on the 17th day. In all ethological tests, medicines were administered 40 minutes prior to the respective test.
The water maze training experiment was performed on the 9-13th day after icv Aβ (1-40), and the platform exploration experiment was performed on the 13 day after that. The working memory test was performed on the 14-16th day after icv Aβ (1-40) (see the figure above), which investigated the ability of rapid learning and spatial memory in animals when the platform and quadrant were changed, based on the fact that animals had memorized in some extent after training and platform exploration experiment. Experimental procedure was similar to the standard water maze training experiment except that the platform's location was changed every day. The experiment was conducted five times every day, allowing the rats to start swimming from five water-entry sites respectively. […] In the following 4 experiments, the location of the platform was kept constant, yet the water entry sites were within different quadrants. The latency of working memory was calculated by averaging those of the 2-5th experiments, and the ability of working memory of each rat was calculated by averaging the experimental values in 3 days.
All results were expressed in mean±standard error. Comparison of latencies between groups in water maze experiment was performed using two-factor analysis of variance in replicate. Comparison between groups was performed using post hoc LSD or Turkey test. Platform exploration test in water maze experiment, working memory test and biochemical assay were analyzed using one-factor analysis of variance. A difference was considered significant when p<0.05.

CCCC[C@@H]1OC(=O)c2ccccc21 [L-NBP, L-n-butylphthalide]
detention time in the target quadrant (platform exploration test, 60 seconds free swimming) ([1]; 10 mg/kg oral, 2-VO rats, mean±standard error, solvent control 14.40±0.73, sham 17.73±1.19, p<0.05 vs solvent control): 17.62 ± 1.27 s
latency (time required for finding the platform) after 5 days of training ([1]; 10 mg/kg oral, 2-VO rats, mean±standard error, solvent control 47.6±5.88, sham surgery 12.6±3.34, p<0.001 vs solvent control): 26.85 ± 5.98 s
search strategy after 5 days of training ([1]; 10 mg/kg oral, 2-VO rats, solvent control still peripheral and random): changed from peripheral and random to purposive and linear
amelioration of impaired short-term memory and spatial orientation (overall conclusion) [1]: could significantly ameliorate
amelioration of impaired short-term memory and spatial orientation (overall conclusion) ([1]; listed as L-n-butylphthalide): could significantly improve; also recorded: could significantly ameliorate
SOD activity in hippocampus after treatment (in words) ([2]; 2-VO rats, p<0.05): returned close to the normal level
SOD activity, hippocampus ([2]; hypoperfused rats, n = 7-9, solvent control 81.16 ± 6.84, sham 57.90 ± 7.41, p<0.05 vs solvent control): 57.60 ± 3.86 NU/mg protein
SOD activity, cortex ([2]; hypoperfused rats, n = 7-9, solvent control 114.42 ± 7.82, sham 100.07 ± 3.64): 98.84 ± 5.53 NU/mg protein
reduction of MDA content in cortex ([3]; 2-VO rats, vs model group, p<0.001): 20.7%
MDA content, hippocampus ([3]; hypoperfused rats, n = 7-9, solvent control 3.63 ± 0.45, sham 3.03 ± 0.12): 3.42 ± 0.12 nmol/mg protein
MDA content, cortex ([3]; hypoperfused rats, n = 7-9, solvent control 3.91 ± 0.22, sham 3.13 ± 0.10, p<0.001 vs solvent control): 3.10 ± 0.09 nmol/mg protein
improvement of cortical ChAT activity as compared with the model group ([4]; continuous administration for 16 days, 2-VO rats, p<0.05): 37.1%
ChAT activity, cortex ([4]; hypoperfused rats, n = 7-9, solvent control 65.6 ± 15.1, p<0.05 vs solvent control): 104.3 ± 8.2 % of sham
ChAT activity, hippocampus ([4]; hypoperfused rats, n = 7-9, solvent control 102.6 ± 15.1): 110.0 ± 13.5 % of sham
number of GFAP-positive astrocytes (immunohistochemistry) ([5]; 10 mg/kg): greatly reduced
sparse substantia alba / vacuola in optic tracts (K-B staining) ([5]; 10 mg/kg extended administration): significant reduction of vacuola
neuronal damage in cortex and hippocampal CA1 induced by hypoperfusion (H-E staining) ([5]; 10 mg/kg, 5 weeks after ligation): could be significantly ameliorated
search strategy after 5 days of training ([6]; 10 mg/kg oral): changed from peripheral and random to purposive and linear
latency after 5 days of training ([6]; 10 mg/kg oral): 27.28 ± 6.42 s
search strategy after 5 days of training ([6]; 30 mg/kg oral): changed from peripheral and random to purposive and linear
latency after 5 days of training ([6]; 30 mg/kg oral): 25.88 ± 5.51 s
working memory (latency in 2-5th experiments) ([6]; 10 and 30 mg/kg, days 14-16 after Aβ (1-40), model 14.05±1.88 s, sham 9.15±0.91 s, p<0.01): can significantly improve the working memory ability in a dose-dependent way; also recorded: could improve the working memory of rats in a dose-dependent manner
amelioration of impaired short-term memory and stereotaxic memory (overall conclusion) ([6]; continuous perfusion of Aβ (1-40) into lateral ventricle, rats, Morris' water maze): could significantly ameliorate
